From ChEMBL document CHEMBL2074467, “Transport characteristics of differently charged cephalosporin antibiotics in oocytes expressing the cloned intestinal peptide transporter PepT1 and in human intestinal Caco-2 cells” (J Pharmacol Exp Ther, 1996)
One block for each compound: values may come before it.

Key:
Assay type in all cases: functional, cell-based
[1] = biological target: T1, Solute carrier family 15 member 1 (Homo sapiens) (UniProt P46059); experiment: TP_TRANSPORTER: inhibition of Cefadroxil uptake (apical pH 5.5, Cefadroxil: 1000 uM, Loracarbef: 10000 uM) in Caco-2 cells; set-up: scale not given: the % may be the effect or the level left
T1 sequence (whole entry): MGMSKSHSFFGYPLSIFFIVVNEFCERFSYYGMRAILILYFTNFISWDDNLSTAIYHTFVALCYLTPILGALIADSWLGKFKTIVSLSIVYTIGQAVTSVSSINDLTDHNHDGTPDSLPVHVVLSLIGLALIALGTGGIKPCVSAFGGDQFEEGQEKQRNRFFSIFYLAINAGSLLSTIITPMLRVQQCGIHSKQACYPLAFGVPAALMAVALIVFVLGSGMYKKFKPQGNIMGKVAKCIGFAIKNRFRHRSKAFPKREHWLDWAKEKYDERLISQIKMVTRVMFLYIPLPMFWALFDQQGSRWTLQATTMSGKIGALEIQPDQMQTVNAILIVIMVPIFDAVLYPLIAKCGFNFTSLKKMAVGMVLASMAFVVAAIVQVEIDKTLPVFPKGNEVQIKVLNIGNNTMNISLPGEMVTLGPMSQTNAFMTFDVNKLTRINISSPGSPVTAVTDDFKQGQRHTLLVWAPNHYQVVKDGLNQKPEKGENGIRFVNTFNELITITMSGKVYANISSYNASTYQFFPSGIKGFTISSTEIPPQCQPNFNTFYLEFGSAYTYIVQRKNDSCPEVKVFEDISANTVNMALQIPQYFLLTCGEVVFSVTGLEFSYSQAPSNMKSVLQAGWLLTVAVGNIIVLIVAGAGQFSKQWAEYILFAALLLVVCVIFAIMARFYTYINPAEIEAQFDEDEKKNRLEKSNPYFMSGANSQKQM

[2] = biological target: T1, Solute carrier family 15 member 1 (Homo sapiens); experiment: TP_TRANSPORTER: inhibition of Cefadroxil uptake (apical pH 6.5, Cefadroxil: 1000 uM, Loracarbef: 10000 uM) in Caco-2 cells; set-up: scale not given: the % may be the effect or the level left
[3] = biological target: T1, Solute carrier family 15 member 1 (Homo sapiens); experiment: TP_TRANSPORTER: inhibition of Cefadroxil uptake (apical pH 6.5, Cefadroxil: 1000 uM, Amoxicillin: 10000 uM) in Caco-2 cells; set-up: scale not given: the % may be the effect or the level left
[4] = biological target: T1, Solute carrier family 15 member 1 (Homo sapiens); experiment: TP_TRANSPORTER: inhibition of Cefadroxil uptake (apical pH 5.5, Cefadroxil: 1000 uM, Amoxicillin: 10000 uM) in Caco-2 cells; set-up: scale not given: the % may be the effect or the level left
[5] = biological target: T2, Solute carrier family 15 member 1 (Homo sapiens, UniProt P46059); experiment: TP_TRANSPORTER: inhibition of Cefixim uptake in Caco-2 cells
T2 sequence (P46059 whole entry): T1 sequence (whole entry)

[6] = biological target: T2, Solute carrier family 15 member 1; experiment: TP_TRANSPORTER: inhibition of Cefadroxil uptake in Caco-2 cells

Activity [1]: 72.6%
Activity [2]: 60.3%
SMILES: N[C@@H](C(=O)N[C@@H]1C(=O)N2C(C(=O)O)=C(Cl)CC[C@H]12)c1ccccc1

Activity [3]: 62.9%
Activity [4]: 85.7%
SMILES: CC1(C)S[C@@H]2[C@H](NC(=O)[C@H](N)c3ccc(O)cc3)C(=O)N2[C@H]1C(=O)O

Ki [5]: 1450 µM
SMILES: CC1=C(C(=O)O)N2C(=O)[C@@H](NC(=O)[C@H](N)c3ccc(O)cc3)[C@H]2SC1 [CEFADROXIL]

Ki [6]: 1310 µM
SMILES: C=CC1=C(C(=O)O)N2C(=O)[C@@H](NC(=O)/C(=N\OCC(=O)O)c3csc(N)n3)[C@H]2SC1 [CEFIXIME]
